Experiment [1] concerns E. coli strain 14443 (MG1655 (FB426)). The format is cell-based. Also: key: '+' indicates that the organism tested was capable of utilizing the carbon source listed; '−' indicates that the organism tested was not capable of utilizing the carbon source listed; 'w' indicates weak positive reactions.
Experiment [2] has as its system E. coli strain 6322 (EMG2 (K12, λF+)). The format is cell-based. Also: key: '+' indicates that the organism tested was capable of utilizing the carbon source listed; '−' indicates that the organism tested was not capable of utilizing the carbon source listed; 'w' indicates weak positive reactions.
Experiment [3] concerns E. coli strain 14444 (MG1655 xylA). The format is cell-based. Also: key: '+' indicates that the organism tested was capable of utilizing the carbon source listed; '−' indicates that the organism tested was not capable of utilizing the carbon source listed; 'w' indicates weak positive reactions.
The test system of experiment [4] is E. coli strain 6321 (MG1655). It is filed as cell-based. Also: key: '+' indicates that the organism tested was capable of utilizing the carbon source listed; '−' indicates that the organism tested was not capable of utilizing the carbon source listed; 'w' indicates weak positive reactions.
Experiment [5] has as its system E. coli strain 13675 (O157). The format is cell-based.
The subject of experiment [6] is E. coli MG1655. It is filed as cell-based.
For experiment [7], the system named is E. coli strain 14445 (MG1655 himA). The format is cell-based.
For experiment [8], the system named is E. coli strain 11547 (O157:H7). The format is cell-based.
Experiment [9] has as its system E. coli strain 13671 (O157:H? gur+). The format is cell-based.
Experiment [10] concerns E. coli 287 (ATCC #11775). It is filed as cell-based.
The subject of experiment [11] is E. coli strain 13673 (O157). The format is cell-based.
Experiment [12] deals with E. coli strain 6320 (W3110). It is filed as cell-based.
For another experiment, the system named is T. harzianum DAOM 190830. The format is cell-based, Trichoderma harzianum.
Experiment [13] deals with E. coli MG1655. It is filed as cell-based. This is another data set of the same source.

The values below come from patent US6727076B2 (priority 1995, dated 2004).

With `O=P(O)(O)OCC(O)CO` (racemic) [D,L-α-glycerol phosphate], the carbon source utilization entry in experiment [1] is “−”; in experiment [2], “+”; in experiment [3], “−”; in experiment [4], “+”; in experiment [5] it was “+”; in experiment [7], “−”. Moreover, the carbon source utilization entry in experiment [8] was “+”; in experiment [9], “+”; in experiment [11], “+”; in [12], “−”. For the same compound, the “suitability as phosphorus source (growth, purple color)” value with E. coli MG1655 [6] is “positive”. In addition, the “carbon source utilization result” value in experiment [10] was “positive”.
On to `COC1OC(CO)C(O)C(O)C1O` (stereo not drawn) [β-methyl glucoside], for which the carbon source utilization result in experiment [1], in experiment [2], in [3], in experiment [4], in experiment [5] and in experiment [7] was “+” in each case. In addition, the carbon source utilization entry in [8], in experiment [9], in experiment [11] and in experiment [12] was “+” in each case. Further, the “carbon source utilization result” value (in the experiment on T. harzianum DAOM 190830; in [10]) was “positive” throughout.
In the case of `OC[C@H]1O[C@H](O[C@H]2O[C@H](CO)[C@@H](O)[C@H](O)[C@H]2O)[C@H](O)[C@@H](O)[C@@H]1O` [D-trehalose], the carbon source utilization entry in experiment [1], in experiment [2], in experiment [3], in [4], in experiment [5] and in experiment [7] was “+” each time. The carbon source utilization entry in [8], in experiment [9], in [11] and in experiment [12] was “+” each time. Besides, the “carbon source utilization result” value (with T. harzianum DAOM 190830; in [10]) was “positive” each time.
`NCCO` [2-amino ethanol]: the carbon source utilization result in [1], in [2], in experiment [3], in experiment [4], in [5] and in experiment [7] was “−” each time. The carbon source utilization result in experiment [8], in experiment [9], in experiment [11] and in experiment [12] was “−” each time. In addition, in the experiment on E. coli MG1655 [13], the “suitability as nitrogen source (growth, purple color)” value was “not suitable”. Also, the “carbon source utilization result” value in [10] is recorded as “positive/negative”.
With `N[C@@H](C(=O)O)[C@@H](O)[C@H](O)[C@H](O)CO` [D-glucosaminic acid], the carbon source utilization result in experiment [1], in experiment [2], in experiment [3], in experiment [4], in experiment [5] and in [7] was “−” throughout. For the same compound, the carbon source utilization entry in [8], in experiment [9], in [11] and in experiment [12] was “−” each time. The “carbon source utilization result” value in experiment [10] is on record as “negative”.
As to `O=P(O)(O)O[C@H]1O[C@H](CO)[C@@H](O)[C@H](O)[C@H]1O` [Glucose-1-phosphate], the carbon source utilization entry in experiment [1], in experiment [2], in experiment [3], in experiment [4], in experiment [5] and in [7] was “+” in each case. Besides, the carbon source utilization result in experiment [8], in experiment [9], in experiment [11] and in [12] was “+” in each case. The “suitability as phosphorus source (growth, purple color)” value with E. coli MG1655 [6] was “positive”. The “carbon source utilization result” value in experiment [10] was “positive”.
